{
  "source": "patent US10905704B2",
  "about": "“Agents and methods using thereof for the prevention and treatment of stem cell muscle disorders” (ECOLE POLYTECHNIQUE FEDERALE DE LAUSANNE (EPFL), priority 2015, dated 2021)",
  "key": {"[1]": {"assay": "Endurance running test", "format": "in vivo, C57BL/6J mice", "settings": "aged mice, NR diet", "procedure": "Endurance running test. Mice were fasted 2 hours before running on a treadmill. The exercise regimen commenced at a speed of 9 cm/s with an inclination of 5 degrees. […] Mice were considered to be exhausted, and removed from the treadmill, following the accumulation of 5 or more shocks (0.1 mA) per minute for two consecutive minutes. The distance traveled and time before exhaustion is registered as maximal running distance and period."}, "[2]": {"tested_on": "tibialis anterior (TA) muscle", "assay": "Cardiotoxin-induced muscle damage, regeneration of TA muscle", "format": "in vivo, C57BL/6J mice", "settings": "for PAX7-positive MuSCs after CTX-induced damage: 7 days after CTX", "procedure": "Cardiotoxin-induced muscle damage. Animals were anesthetized using Isoflurane in oxygen from a precision vaporizer. 50 μl of 20 μM Naje mossambica mossambica cardiotoxin (Sigma) was injected intramuscularly cross the skin and directly into the tibialis anterior (TA) muscle. Mice were sacrificed at 7 and 14 days after injury. TA muscles were immediately embedded in Thermo Scientific™ Shandon™ Cryomatrix™ and frozen in isopentane, cooled in liquid nitrogen, for 2 mins before being transferred to dry ice and stored at −80° C.\nHistology. TA muscles were harvested from anaesthetized mice and immediately frozen in Tissue-TEK® OCT compound (PST). 8-μm cryosections were collected and fixed with 4% paraformaldehyde, which are either stained with haematoxylin/eosin (HE) or antibodies. For immunostainings, heat activated antigen retrieval was performed in pH 6.0 citrate buffer for 10 min at 65° C. After washing with PBS-0.1% tween 20 (PBST), the sections were blocked with 10% affinipure Fab goat anti mouse IgG (Jackson Immunoresearch) in PBST for 60 min and PBST containing 2% BSA and 5% goat serum for 30 min at room temperature. Primary antibodies were then applied over night at 4° C. The following antibodies were used: anti-eMHC (Developmental Studies Hybridoma Bank, DSHB, University of Iowa), anti-Pax7 (DSHB, University of Iowa), anti-Laminin (Sigma). Subsequently, the slides were washed in PBST and incubated with appropriate secondary antibodies and labeling dyes. For immunofluorescence, secondary antibodies were coupled to Alexa-488 or Alexa-568 fluorochromes (Life technology), and nuclei were stained with DAPI (Invitrogen). After washing in PBST, tissue sections were mounted with Dako mounting medium (Dako)."}, "[3]": {"tested_on": "MuSCs", "assay": "Senescence and apoptosis marker staining of MuSCs from NR-treated mice (γH2AX, β-galactosidase, cleaved CASP3)", "format": "cell-based, C57BL/6J mice", "procedure": "Histology. TA muscles were harvested and the immunestaining was performed as described in Example 2. The following antibodies were used: anti-γH2AX […] (Millipore), anti-activated-caspase3 (Cell signaling). Secondary antibodies were coupled to Alexa-488 or Alexa-568 fluorochromes (Life technology), and nuclei were stained with DAPI (Invitrogen). β-galactosidase assay. MuSCs were sorted directly and cultured primary MuSCs were grown on 8 chamber slides (Thermo Scientific). Senescence-associated β-galactosidase activity was detected using the senescence β-galactosidase staining kit (Cell signaling), according to manufacturer's instructions. Cell culture and treatments. FACS sorted MuSCs were grown on a 10% Matrigel (Corning)-coated dish and flasks with Fams F-10 media (Gibco), supplemented with 20% fetal bovine serum (FBS, Gibco), 2.5 ng/ml basic fibroblast growth factor (bFGF, Sigma) and penicillin/streptomycin (1×, Gibco). Dishes were coated with 10% growth factor-free Matrigel solution on ice for 7 min then transferred to a 37° C. cell culture incubator overnight before use. Cells were grown for three generations in vitro before experiments with cells plated and passaged at 10^3 cells/ml and 50% confluencies, respectively. C2C12 mouse myoblasts were grown in DMEM (4.5 g/1 glucose, Gibco) supplemented with 10% FBS and penicillin/streptomycin (1×, Gibco)."}, "[4]": {"tested_on": "MuSCs", "assay": "MuSC numbers in NR-treated Mdx mice (FACS, PAX7 immunostaining)", "format": "in vivo", "procedure": "Animals. Young (1 month old) and aged (20-24 months old) C57BL/6JRj mice, purchased from Janvier Labs, and five weeks old male C57BL/10SnJ mice or C57BL/10ScSn-Dmdmdx/J, purchased from The Jackson Laboratory, were fed with pellets containing vehicle or NR (400 mg/kg/day) for 6-8 weeks. The pellets were prepared by mixing powdered chow diet (D12450B, Research Diets Inc.) with water or with NR dissolved in water. Pellets were dried under a laminar flow hood for 48 hours. All mice were housed in micro-isolator cages in a room illuminated from 7:00 am -7:00 pm with ad libitum access to diet and water.\nFACS based muscle stem cell isolation. Gastrocnemius, soleus, quadriceps, and tibialis anterior muscles from both limbs were excised and transferred into PBS on ice. All muscles were trimmed, minced and digested with 0.1 mg/ml of type II collagenase (Sigma) in PBS for 15 min at 37° C. Samples were then centrifuged at 750 g for 5 min and further digested in 1 mg/ml of collagenase/dispase (Roche) for 30 mins at 37° C. Muscle slurries were sequentially filtered through 100, 70 and 40 μm cell strainers. […] Stained cells were analysed and sorted using the FACSAria II instrument (BD Biosciences). […]"}, "[5]": {"settings": "MuSCs from NR-treated mice cultured ex vivo for three generations"}},
  "data": [
    {"compound": "NC(=O)c1ccc[n+]([C@@H]2O[C@H](CO)[C@@H](O)[C@H]2O)c1", "note": "[NR, nicotinamide riboside]", "values": [
      {"measurement": "maximal running distances", "setting": "[1]; FIG. 3E", "value": "improvements"},
      {"measurement": "maximal running times", "setting": "[1]; FIG. 3F", "value": "improvements"},
      {"measurement": "muscle regeneration after CTX-induced muscle damage (H/E)", "setting": "[2]; aged mice, 7 and 14 days of regeneration, FIG. 3H", "value": "accelerated muscle regeneration"},
      {"measurement": "PAX7-positive MuSCs after CTX-induced damage", "setting": "[2]; aged mice, FIG. 3I-J", "value": "increases in PAX7-positive MuSCs"},
      {"measurement": "embryonic myosin heavy chain (eMyHC) staining, newly regenerated fibers", "setting": "[2]; aged mice, 7 days after CTX-induced damage, FIG. 3L", "value": "improvements in embryonic myosin heavy chain staining"},
      {"measurement": "MYOD1-positive PAX7 immunostained cells (stemness)", "setting": "[2]; aged mice, 7 days after muscle damage, FIG. 3K", "value": "reduction in MYOD1-positive PAX7 immunostained cells"},
      {"measurement": "muscle regeneration after CTX-induced muscle damage", "setting": "[2]; young mice", "value": "accelerated muscle regeneration"},
      {"measurement": "PAX7-positive MuSCs after CTX-induced damage", "setting": "[2]; young mice", "value": "trend to increase"},
      {"measurement": "cleaved caspase-3 (CASP3) immunostaining", "setting": "[3]; [5]", "value": "reductions"},
      {"measurement": "γH2AX positive nuclei", "setting": "[3]; [5]", "value": "reductions"},
      {"measurement": "γH2AX positive nuclei", "setting": "[3]; freshly isolated MuSCs from aged mice, NR diet, FIG. 4A,B", "value": "staining was reduced"},
      {"measurement": "β-galactosidase staining (senescence)", "setting": "[3]; freshly sorted MuSCs from aged mice, NR diet", "value": "reduction of the nuclear damage response was confirmed"},
      {"measurement": "increase of MuSC numbers in vivo", "setting": "[4]; Mdx mice, NR 400 mg/kg/day in diet, FACS, FIG. 6B-D", "value": "~1.8", "unit": "fold"},
      {"measurement": "MuSC numbers by PAX7 immunostaining", "setting": "[4]; NR-treated Mdx mice, FIG. 6E", "value": "confirmed by PAX7 immunostaining"}
    ]}
  ]
}
